Results published in patent US8758816B2, “Compositions comprising azelastine and methods of use thereof” (priority 2004, dated 2014).

System: patients with seasonal allergic rhinitis (SAR)
Experiment: MP 428 study: individual symptom severity scores (runny nose, itchy nose, sneezing, congestion; 0-3 scale)
Type: in vivo, human
Details: Intent-to-Treat Population
Protocol: A two-week, randomized, double-blind study, which evaluated the effects of the co-administration of ASTELIN® (azelastine hydrochloride (HCl)) and FLONASE® (fluticasone propionate) compared to either product alone in patients with seasonal allergic rhinitis (SAR) was conducted during the 2006 Texas mountain cedar season. After a 5-day placebo lead-in period, 151 patients with moderate-to-severe allergic rhinitis symptoms were randomized to either: (1) (49 total patients) ASTELIN® (azelastine hydrochloride (HCl)) plus placebo saline nasal spray 2 sprays per nostril, 15 minutes apart, twice daily (AM & PM); (2) (50 total patients) FLONASE® (fluticasone propionate) plus placebo saline nasal spray, 2 sprays per nostril, 15 minutes apart, once daily (AM) and two sessions of placebo saline nasal spray, 2 sprays per nostril, 15 minutes apart (PM); or (3) (52 total patients) the co-administration of ASTELIN® (azelastine hydrochloride (HCl)) 2 sprays per nostril plus FLONASE® (fluticasone propionate) 2 sprays per nostril (AM), 15 minutes apart, and ASTELIN® (azelastine hydrochloride (HCl)) 2 sprays per nostril plus placebo saline nasal spray, 15 minutes apart, (PM) for a 2-week double-blind treatment period.
The primary efficacy variable was the change from baseline in the Total Nasal Symptom Score (TNSS), which comprised sneezing, itchy nose, runny nose, and nasal congestion (individual symptoms scores were assigned a value between 0 and 3, where 0=no symptoms and 3=severe symptoms). This study was not statistically designed to assess the differences between ASTELIN® and FLONASE®.
The results of the clinical trial are summarized and presented in Appendix A hereinbelow and in FIGS. 1-6. […] FIGS. 2-5 show the mean improvement in severity score (0-3 scale) from baseline for the symptoms of runny nose, itchy nose, sneezing and congestion, respectively.

`CCC(=O)O[C@]1(C(=O)SCF)[C@H](C)C[C@H]2[C@@H]3C[C@H](F)C4=CC(=O)C=C[C@]4(C)[C@@]3(F)[C@@H](O)C[C@@]21C` [Fluticasone, fluticasone propionate] was tested. Which “Change from Baseline in AM and PM Combined Nasal Symptom Score: Congestion, LS Mean” value (Day 9) did it give?
The value was −1.19.

And the “Change from Baseline in AM and PM Combined Nasal Symptom Score: Congestion, Mean” value (Day 9)?
Its value is −1.22.

And the “Change from Baseline in AM and PM Combined Nasal Symptom Score: Congestion, Median” value (Day 9)?
Its value is −1.27.

And the “Change from Baseline in AM and PM Combined Nasal Symptom Score: Itchy Nose, LS Mean” value (Day 9)?
Its value is −1.40.

And the “Change from Baseline in AM and PM Combined Nasal Symptom Score: Itchy Nose, Mean” value (Day 9)?
The value was −1.35.

And the “Change from Baseline in AM and PM Combined Nasal Symptom Score: Itchy Nose, Median” value (Day 9)?
Its value is −1.30.

And the “Change from Baseline in AM and PM Combined Nasal Symptom Score: Runny Nose, LS Mean” value (Day 9)?
Its value is −1.18.

What about the “Change from Baseline in AM and PM Combined Nasal Symptom Score: Runny Nose, Mean” value (Day 9) of the same compound?
The value was −1.21.

What about the “Change from Baseline in AM and PM Combined Nasal Symptom Score: Runny Nose, Median” value (Day 9) of the same compound?
Its value is −1.00.

And the “Change from Baseline in AM and PM Combined Nasal Symptom Score: Sneezing, LS Mean” value (Day 9)?
The value was −1.40.

And the “Change from Baseline in AM and PM Combined Nasal Symptom Score: Sneezing, Mean” value (Day 9)?
The value was −1.29.

And the “Change from Baseline in AM and PM Combined Nasal Symptom Score: Sneezing, Median” value (Day 9)?
Its value is −1.40.

What about the “Percent Change from Baseline in AM and PM Combined Nasal Symptom Score: Congestion, LS Mean” value (from here on “Percent Change … Congestion, LS Mean”) (Day 9) of the same compound?
The value was −22.17%.

And the “Percent Change from Baseline in AM and PM Combined Nasal Symptom Score: Congestion, Mean” value (shortened to “Percent Change from Baseline … Congestion, Mean”) (Day 9)?
The value was −22.28%.

And the “Percent Change from Baseline in AM and PM Combined Nasal Symptom Score: Congestion, Median” value (shortened to “Percent Change … Congestion, Median”) (Day 9)?
The value was −24.05%.

And the “Percent Change from Baseline in AM and PM Combined Nasal Symptom Score: Itchy Nose, LS Mean” value (shortened to “Percent Change … Itchy Nose, LS Mean”) (Day 9)?
Its value is −29.96%.

What about the “Percent Change from Baseline in AM and PM Combined Nasal Symptom Score: Itchy Nose, Mean” value (“Percent Change from Baseline … Itchy Nose, Mean” below) (Day 9) of the same compound?
Its value is −28.73%.

What about the “Percent Change from Baseline in AM and PM Combined Nasal Symptom Score: Itchy Nose, Median” value (“Percent Change … Itchy Nose, Median” for short) (Day 9) of the same compound?
Its value is −31.23%.

And the “Percent Change from Baseline in AM and PM Combined Nasal Symptom Score: Runny Nose, LS Mean” value (from here on “Percent Change … Runny Nose, LS Mean”) (Day 9)?
Its value is −18.79%.

What about the “Percent Change from Baseline in AM and PM Combined Nasal Symptom Score: Runny Nose, Mean” value (shortened to “Percent Change from Baseline … Runny Nose, Mean”) (Day 9) of the same compound?
The value was −19.22%.

And the “Percent Change from Baseline in AM and PM Combined Nasal Symptom Score: Runny Nose, Median” value (shortened to “Percent Change … Runny Nose, Median”) (Day 9)?
Its value is −16.67%.

What about the “Percent Change from Baseline in AM and PM Combined Nasal Symptom Score: Sneezing, LS Mean” value (shortened to “Percent Change from Baseline … Sneezing, LS Mean”) (Day 9) of the same compound?
Its value is −29.73%.

What about the “Percent Change from Baseline in AM and PM Combined Nasal Symptom Score: Sneezing, Mean” value (“Percent Change from Baseline … Sneezing, Mean” below) (Day 9) of the same compound?
Its value is −28.22%.

And the “Percent Change from Baseline in AM and PM Combined Nasal Symptom Score: Sneezing, Median” value (shortened to “Percent Change from Baseline … Sneezing, Median”) (Day 9)?
Its value is −32.58%.

What about the “Change from Baseline in AM and PM Combined Nasal Symptom Score: Congestion, LS Mean” value (Day 10) of the same compound?
Its value is −1.34.

And the “Change from Baseline in AM and PM Combined Nasal Symptom Score: Congestion, Mean” value (Day 10)?
The value was −1.39.

And the “Change from Baseline in AM and PM Combined Nasal Symptom Score: Congestion, Median” value (Day 10)?
Its value is −1.50.

And the “Change from Baseline in AM and PM Combined Nasal Symptom Score: Itchy Nose, LS Mean” value (Day 10)?
The value was −1.21.

What about the “Change from Baseline in AM and PM Combined Nasal Symptom Score: Itchy Nose, Mean” value (Day 10) of the same compound?
Its value is −1.19.

What about the “Change from Baseline in AM and PM Combined Nasal Symptom Score: Itchy Nose, Median” value (Day 10) of the same compound?
Its value is −1.00.

What about the “Change from Baseline in AM and PM Combined Nasal Symptom Score: Runny Nose, LS Mean” value (Day 10) of the same compound?
Its value is −1.52.

And the “Change from Baseline in AM and PM Combined Nasal Symptom Score: Runny Nose, Mean” value (Day 10)?
Its value is −1.54.

What about the “Change from Baseline in AM and PM Combined Nasal Symptom Score: Runny Nose, Median” value (Day 10) of the same compound?
Its value is −1.45.

And the “Change from Baseline in AM and PM Combined Nasal Symptom Score: Sneezing, LS Mean” value (Day 10)?
Its value is −1.57.

What about the “Change from Baseline in AM and PM Combined Nasal Symptom Score: Sneezing, Mean” value (Day 10) of the same compound?
The value was −1.50.

And the “Change from Baseline in AM and PM Combined Nasal Symptom Score: Sneezing, Median” value (Day 10)?
Its value is −1.58.

What about the “Percent Change … Congestion, LS Mean” value (Day 10) of the same compound?
The value was −24.97%.

And the “Percent Change from Baseline … Congestion, Mean” value (Day 10)?
Its value is −25.31%.

And the “Percent Change … Congestion, Median” value (Day 10)?
The value was −27.27%.

What about the “Percent Change … Itchy Nose, LS Mean” value (Day 10) of the same compound?
The value was −23.04%.

What about the “Percent Change from Baseline … Itchy Nose, Mean” value (Day 10) of the same compound?
Its value is −22.79%.

And the “Percent Change … Itchy Nose, Median” value (Day 10)?
Its value is −18.99%.

And the “Percent Change … Runny Nose, LS Mean” value (Day 10)?
The value was −26.05%.

What about the “Percent Change from Baseline … Runny Nose, Mean” value (Day 10) of the same compound?
Its value is −26.39%.

And the “Percent Change … Runny Nose, Median” value (Day 10)?
Its value is −29.13%.

What about the “Percent Change from Baseline … Sneezing, LS Mean” value (Day 10) of the same compound?
Its value is −31.65%.

And the “Percent Change from Baseline … Sneezing, Mean” value (Day 10)?
The value was −31.17%.

And the “Percent Change from Baseline … Sneezing, Median” value (Day 10)?
The value was −33.33%.

What about the “Change from Baseline in AM and PM Combined Nasal Symptom Score: Congestion, LS Mean” value (Day 11) of the same compound?
Its value is −1.22.

And the “Change from Baseline in AM and PM Combined Nasal Symptom Score: Congestion, Mean” value (Day 11)?
The value was −1.28.

And the “Change from Baseline in AM and PM Combined Nasal Symptom Score: Congestion, Median” value (Day 11)?
The value was −1.27.

And the “Change from Baseline in AM and PM Combined Nasal Symptom Score: Itchy Nose, LS Mean” value (Day 11)?
Its value is −1.33.

And the “Change from Baseline in AM and PM Combined Nasal Symptom Score: Itchy Nose, Mean” value (Day 11)?
The value was −1.29.

And the “Change from Baseline in AM and PM Combined Nasal Symptom Score: Itchy Nose, Median” value (Day 11)?
Its value is −1.08.

And the “Change from Baseline in AM and PM Combined Nasal Symptom Score: Runny Nose, LS Mean” value (Day 11)?
Its value is −1.51.

What about the “Change from Baseline in AM and PM Combined Nasal Symptom Score: Runny Nose, Mean” value (Day 11) of the same compound?
Its value is −1.54.

What about the “Change from Baseline in AM and PM Combined Nasal Symptom Score: Runny Nose, Median” value (Day 11) of the same compound?
The value was −1.42.

What about the “Change from Baseline in AM and PM Combined Nasal Symptom Score: Sneezing, LS Mean” value (Day 11) of the same compound?
Its value is −1.78.

And the “Change from Baseline in AM and PM Combined Nasal Symptom Score: Sneezing, Mean” value (Day 11)?
Its value is −1.66.

What about the “Change from Baseline in AM and PM Combined Nasal Symptom Score: Sneezing, Median” value (Day 11) of the same compound?
Its value is −1.83.

And the “Percent Change … Congestion, LS Mean” value (Day 11)?
Its value is −22.54%.

What about the “Percent Change from Baseline … Congestion, Mean” value (Day 11) of the same compound?
Its value is −23.45%.

And the “Percent Change … Congestion, Median” value (Day 11)?
Its value is −24.05%.

What about the “Percent Change … Itchy Nose, LS Mean” value (Day 11) of the same compound?
Its value is −26.56%.

What about the “Percent Change from Baseline … Itchy Nose, Mean” value (Day 11) of the same compound?
Its value is −25.70%.

And the “Percent Change … Itchy Nose, Median” value (Day 11)?
The value was −27.36%.

What about the “Percent Change … Runny Nose, LS Mean” value (Day 11) of the same compound?
Its value is −31.56%.

And the “Percent Change from Baseline … Runny Nose, Mean” value (Day 11)?
The value was −31.74%.

What about the “Percent Change … Runny Nose, Median” value (Day 11) of the same compound?
The value was −33.33%.

What about the “Percent Change from Baseline … Sneezing, LS Mean” value (Day 11) of the same compound?
The value was −35.11%.

And the “Percent Change from Baseline … Sneezing, Mean” value (Day 11)?
The value was −33.52%.

And the “Percent Change from Baseline … Sneezing, Median” value (Day 11)?
The value was −36.05%.

And the “Change from Baseline in AM and PM Combined Nasal Symptom Score: Congestion, LS Mean” value (Day 12)?
Its value is −1.41.

What about the “Change from Baseline in AM and PM Combined Nasal Symptom Score: Congestion, Mean” value (Day 12) of the same compound?
The value was −1.49.

What about the “Change from Baseline in AM and PM Combined Nasal Symptom Score: Congestion, Median” value (Day 12) of the same compound?
The value was −1.55.

And the “Change from Baseline in AM and PM Combined Nasal Symptom Score: Itchy Nose, LS Mean” value (Day 12)?
The value was −1.50.

And the “Change from Baseline in AM and PM Combined Nasal Symptom Score: Itchy Nose, Mean” value (Day 12)?
The value was −1.48.

What about the “Change from Baseline in AM and PM Combined Nasal Symptom Score: Itchy Nose, Median” value (Day 12) of the same compound?
Its value is −1.17.

What about the “Change from Baseline in AM and PM Combined Nasal Symptom Score: Runny Nose, LS Mean” value (Day 12) of the same compound?
Its value is −1.54.

And the “Change from Baseline in AM and PM Combined Nasal Symptom Score: Runny Nose, Mean” value (Day 12)?
Its value is −1.58.

And the “Change from Baseline in AM and PM Combined Nasal Symptom Score: Runny Nose, Median” value (Day 12)?
Its value is −1.35.

What about the “Change from Baseline in AM and PM Combined Nasal Symptom Score: Sneezing, LS Mean” value (Day 12) of the same compound?
Its value is −1.68.

What about the “Change from Baseline in AM and PM Combined Nasal Symptom Score: Sneezing, Mean” value (Day 12) of the same compound?
Its value is −1.54.

And the “Change from Baseline in AM and PM Combined Nasal Symptom Score: Sneezing, Median” value (Day 12)?
Its value is −1.80.
